US11167007B2, “FOXM1 modulators and uses thereof” (City of Hope, priority 2016, dated 2021)

Key:
AR [1] = biological target: T1, AR (Homo sapiens, UniProt P10275); assay: FRET-based AR conformation change reporter (CARY) in LNCaP C4 prostate cells; type: cell-based; design: Full length AR with cyan fluorescent protein (CFP) or yellow fluorescent protein (YFP) fused to either end (CARY); expressed in transfected cells; conditions: LNCaP C4 prostate cancer cells
T1 sequence (P10275 1-920): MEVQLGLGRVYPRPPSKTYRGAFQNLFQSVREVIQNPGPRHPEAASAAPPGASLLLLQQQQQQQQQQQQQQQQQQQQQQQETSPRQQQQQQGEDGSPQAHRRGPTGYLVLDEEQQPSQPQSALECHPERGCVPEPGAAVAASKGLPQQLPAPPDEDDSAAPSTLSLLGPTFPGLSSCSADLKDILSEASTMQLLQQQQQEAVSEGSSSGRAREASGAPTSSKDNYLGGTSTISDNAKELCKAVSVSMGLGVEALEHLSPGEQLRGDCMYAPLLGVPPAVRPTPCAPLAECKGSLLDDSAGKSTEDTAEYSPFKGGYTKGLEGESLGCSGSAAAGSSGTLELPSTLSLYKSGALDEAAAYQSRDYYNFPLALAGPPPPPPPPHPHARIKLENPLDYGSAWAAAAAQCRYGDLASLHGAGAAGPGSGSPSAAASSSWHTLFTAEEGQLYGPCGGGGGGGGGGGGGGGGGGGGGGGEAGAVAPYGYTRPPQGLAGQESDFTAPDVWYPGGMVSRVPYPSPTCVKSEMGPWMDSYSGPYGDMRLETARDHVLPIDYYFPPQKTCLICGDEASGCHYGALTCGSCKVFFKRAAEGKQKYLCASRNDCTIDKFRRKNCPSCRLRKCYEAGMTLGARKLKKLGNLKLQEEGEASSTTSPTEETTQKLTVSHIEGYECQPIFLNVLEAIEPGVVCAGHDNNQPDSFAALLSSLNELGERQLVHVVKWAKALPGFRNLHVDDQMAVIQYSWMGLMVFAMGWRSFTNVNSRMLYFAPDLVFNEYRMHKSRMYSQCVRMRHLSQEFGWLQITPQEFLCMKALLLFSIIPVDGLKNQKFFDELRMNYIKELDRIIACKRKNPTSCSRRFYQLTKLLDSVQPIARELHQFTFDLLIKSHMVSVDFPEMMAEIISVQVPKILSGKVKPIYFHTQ
Description: (§1) Creation of stable C-AR-Y reporter cell lines. Cell lines listed above were either transfected with a plasmid or a virus containing the CFP-AR-YFP construct preceding an IRES and hygromycin resistance gene and clonal stable cell lines selected. Qualification criteria for the transfected cell lines were described by Jones et al, ACS Chem Biol, 3(7):412-8 (2008).
(§2) Screen for AR-modulators. Screening was performed essentially as described by Jones et al, ACS Chem Biol, 3(7):412-8 (2008). Briefly, C-AR-Y reporter GTI-7 were transferred to 96 well plates and treated with library compounds for 24 hours. […] The compounds to be tested were from the NCI/DTP Open Chemical Repository's Approved Oncology Drugs Set II, Diversity Set II and Mechanistic Set. […] After 24 hours, medium was aspirated and FRET was measured as previously described using a monochromator-based fluorescence plate reader (M1000, Tecan, Inc.). Jones et al, ACS Chem Biol, 3(7):412-8 (2008). […]
(§3) In order to identify potential cell-type selective AR modulators, the FRET-based assay of AR conformation change was utilized. […] This produces an accurate and quantifiable read-out of AR activity. […] Candidate hits were then further evaluated by dose response. […] In addition to FRET, AR transcriptional activity was also assessed in several cell lines by transfecting cells with a luciferase reporter driven by the human PSA promoter. […]

AR [2] = biological target: T1, AR; assay: FRET-based AR conformation change reporter (CARY) in 3T3L1 adipose cells; type: cell-based, murine; design: Full length AR with cyan fluorescent protein (CFP) or yellow fluorescent protein (YFP) fused to either end (CARY); expressed in transfected cells; conditions: 3T3L1 adipose-derived cells
Description: as §1, §2, §3

[3] = biological target: T2, AR with a 24 glutamine tract (normal) (Homo sapiens, UniProt P10275, DUP80-80); assay: Luciferase reporter assay in HEK293 cells transfected with ARQ24; type: cell-based; conditions: HEK293, AR 24 glutamines, FIG. 2C
T2 construct: expressed in transfected cells; host or cells: HEK293
Source text: Luciferase Reporter Assay. Cells were transfected using Lipofectamine Plus (Invitrogen) with a normalization plasmid (pRL-SV40, Promega) and an androgen responsive plasmid (MMTV-luciferase or PSA-luciferase) as described in Jones et al, ACS Chem Biol, 3(7):412-8 (2008), and, where indicated, with an shRNA plasmid targeting FOXM1 (adapted for mouse FOXM1 sequence targeting) a scrambled control shRNA plasmid, or ARQ24 or ARQ65 plasmids. Christensen et al, PLoS One, 8(1):e54556 (2013). The following day, cells and drugs were distributed to 96-well plates. 24 hours later, luciferase activity was assessed by a dual luciferase assay kit (Promega) on the Tecan plate reader. Samples were run in quadruplicates and a Student's t test was performed to determine significance, where p<0.05 was considered significant.
SBMA is caused by the activity of polyglutamine-expanded AR, and experiments were conducted to investigate the effects of thiostrepton against polyglutamine-expanded AR. AR-negative HEK293 cells were transfected with plasmids encoding AR with a 24 glutamine tract (normal) or with a 65 glutamine tract (disease associated). The polyglutamine-expanded AR was less transcriptionally active than the normal AR, as has been previously documented for such constructs. Kazemi-Esfarjani et al, Hum Mol Genet, 4:523-527 (1995).

T2 sequence (P10275 with tags, fused parts or gaps DUP80-80): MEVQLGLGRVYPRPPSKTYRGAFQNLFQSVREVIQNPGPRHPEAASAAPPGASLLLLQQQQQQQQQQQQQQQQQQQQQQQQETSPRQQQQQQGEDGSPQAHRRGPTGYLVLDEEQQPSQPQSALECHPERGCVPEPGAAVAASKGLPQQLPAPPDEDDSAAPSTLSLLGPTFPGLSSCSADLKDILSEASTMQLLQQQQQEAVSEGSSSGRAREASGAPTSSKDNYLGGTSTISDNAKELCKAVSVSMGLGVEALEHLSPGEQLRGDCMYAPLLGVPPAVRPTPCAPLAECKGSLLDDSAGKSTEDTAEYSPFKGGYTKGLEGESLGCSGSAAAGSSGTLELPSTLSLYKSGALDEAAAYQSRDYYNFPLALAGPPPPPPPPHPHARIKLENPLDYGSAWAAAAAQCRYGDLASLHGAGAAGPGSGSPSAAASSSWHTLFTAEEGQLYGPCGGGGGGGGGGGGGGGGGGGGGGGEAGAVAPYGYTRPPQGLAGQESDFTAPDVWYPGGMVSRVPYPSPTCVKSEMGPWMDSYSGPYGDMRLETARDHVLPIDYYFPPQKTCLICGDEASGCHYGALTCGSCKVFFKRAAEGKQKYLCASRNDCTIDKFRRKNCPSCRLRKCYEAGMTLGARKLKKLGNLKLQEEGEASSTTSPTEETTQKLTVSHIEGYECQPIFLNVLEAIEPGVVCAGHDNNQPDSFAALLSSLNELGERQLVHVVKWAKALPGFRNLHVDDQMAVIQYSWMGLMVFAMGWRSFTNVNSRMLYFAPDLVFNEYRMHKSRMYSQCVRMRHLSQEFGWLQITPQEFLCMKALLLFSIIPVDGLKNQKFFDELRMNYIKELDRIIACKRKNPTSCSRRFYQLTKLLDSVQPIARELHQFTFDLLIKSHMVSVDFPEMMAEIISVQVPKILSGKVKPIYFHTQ

C=C(NC(=O)C(=C)NC(=O)c1csc(C2=N[C@@H]3c4csc(n4)[C@H]4NC(=O)c5csc(n5)[C@H]([C@](C)(O)[C@@H](C)O)NC(=O)[C@H]5CSC(=N5)/C(=C/C)NC(=O)[C@H]([C@@H](C)O)NC(=O)c5csc(n5)[C@]3(CC2)NC(=O)[C@H](C)NC(=O)C(=C)NC(=O)C(=C)NC(=O)[C@H](C(C)C)N[C@@H]2C=Cc3c([C@H](C)O)cc(nc3[C@H]2O)C(=O)O[C@@H]4C)n1)C(N)=O [NSC285116, siomycin A] was tested, and the “AR inhibitor activity in words” value (AR [1]; listed as Siomycin A) was “little to no activity”, the “AR inhibitor activity in words” value (AR [1]; listed as siomycin) was “not as sensitive” and the “AR inhibitor activity in words” value (AR [2]) was “little to no activity”.
With C=C(NC(=O)C(=C)NC(=O)c1csc(C2=N[C@@H]3c4csc(n4)[C@H]4NC(=O)c5csc(n5)[C@H]([C@](C)(O)[C@@H](C)O)NC(=O)[C@H]5CSC(=N5)/C(=C/C)NC(=O)[C@H]([C@@H](C)O)NC(=O)c5csc(n5)[C@]3(CC2)NC(=O)[C@H](C)NC(=O)C(=C)NC(=O)[C@H](C)NC(=O)[C@H]([C@@H](C)CC)N[C@@H]2C=Cc3c([C@H](C)O)cc(nc3[C@H]2O)C(=O)O[C@@H]4C)n1)C(N)=O [thiostrepton] the “inhibition of non-expanded AR activity (luciferase)” value [3] was “inhibited”.
